# Source: PubChem BioAssay (NCI)
#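 Grown in 96-well plates, cells were treated for 48 hours with each compound at five concentrations. Insufficient inhibition: endpoint recorded as highest concentration tested. Abbreviation: GI50, concentration required for 50% inhibition of growth. TGI is the concentration that stops growth completely.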
# What was measured:
# Assay in all cases: NCI anticancer screen, dose series, 48 h
# HT29 colon = test system: HT29 colon
# A498 renal = test system: A498 renal
# SNB-19 CNS = test system: SNB-19 CNS
# LOX IMVI melanoma = test system: LOX IMVI melanoma
# SW-620 colon = test system: SW-620 colon
# UACC-257 melanoma = test system: UACC-257 melanoma
# CCRF-CEM leukemia = test system: CCRF-CEM leukemia
# HCT-116 colon = test system: HCT-116 colon
# UACC-62 melanoma = test system: UACC-62 melanoma
# SN12C renal = test system: SN12C renal
# SK-MEL-2 melanoma = test system: SK-MEL-2 melanoma
# MDA-MB-231 breast = test system: MDA-MB-231 breast
# SF-295 CNS = test system: SF-295 CNS
# U251 CNS = test system: U251 CNS
# SK-OV-3 ovarian = test system: SK-OV-3 ovarian
# 786-0 renal = test system: 786-0 renal
# MOLT-4 leukemia = test system: MOLT-4 leukemia
# NCI-H522 lung = test system: NCI-H522 lung
# NCI-H23 lung = test system: NCI-H23 lung
# HOP-92 NSCLC = test system: HOP-92 NSCLC
# NCI-H226 lung = test system: NCI-H226 lung
# OVCAR-5 ovarian = test system: OVCAR-5 ovarian
# M14 melanoma = test system: M14 melanoma
# IGROV1 ovarian = test system: IGROV1 ovarian
# OVCAR-4 ovarian = test system: OVCAR-4 ovarian
# PC-3 prostate = test system: PC-3 prostate
# KM12 colon = test system: KM12 colon
# SF-539 CNS = test system: SF-539 CNS
# SK-MEL-5 melanoma = test system: SK-MEL-5 melanoma
# HCT-15 colon = test system: HCT-15 colon
# CAKI-1 renal = test system: CAKI-1 renal
# SNB-75 CNS = test system: SNB-75 CNS
# DU-145 prostate = test system: DU-145 prostate
# RXF 393 renal = test system: RXF 393 renal
# SK-MEL-28 melanoma = test system: SK-MEL-28 melanoma
# EKVX NSCLC = test system: EKVX NSCLC
# A549 NSCLC = test system: A549 NSCLC
# UO-31 renal = test system: UO-31 renal
# MALME-3M melanoma = test system: MALME-3M melanoma
# K-562 leukemia = test system: K-562 leukemia
# HOP-62 NSCLC = test system: HOP-62 NSCLC
# OVCAR-8 ovarian = test system: OVCAR-8 ovarian
# SF-268 CNS = test system: SF-268 CNS
# HCC-2998 colon = test system: HCC-2998 colon
# COLO 205 colon = test system: COLO 205 colon
# TK-10 renal = test system: TK-10 renal
# NCI-H460 lung = test system: NCI-H460 lung
# HS 578T breast = test system: HS 578T breast
# MDA-MB-435 = test system: MDA-MB-435
# RPMI-8226 leukemia = test system: RPMI-8226 leukemia
# OVCAR-3 ovarian = test system: OVCAR-3 ovarian
# T-47D breast = test system: T-47D breast
# BT-549 breast = test system: BT-549 breast
# MCF7 breast = test system: MCF7 breast
# ACHN renal = test system: ACHN renal
smiles,measurement,setting,value
O=C(NN1C(=O)CSC12CCCC2)C(O)c1ccccc1 (stereo not given),GI50,HT29 colon,> 100 µM
same,TGI,HT29 colon,> 100 µM
same,GI50,A498 renal,> 100 µM
same,TGI,A498 renal,> 100 µM
same,GI50,SNB-19 CNS,> 100 µM
same,TGI,SNB-19 CNS,> 100 µM
same,GI50,LOX IMVI melanoma,> 100 µM
same,TGI,LOX IMVI melanoma,> 100 µM
same,GI50,SW-620 colon,> 100 µM
same,TGI,SW-620 colon,> 100 µM
same,GI50,UACC-257 melanoma,> 100 µM
same,TGI,UACC-257 melanoma,> 100 µM
same,GI50,CCRF-CEM leukemia,> 100 µM
same,TGI,CCRF-CEM leukemia,> 100 µM
same,GI50,HCT-116 colon,> 100 µM
same,TGI,HCT-116 colon,> 100 µM
same,GI50,UACC-62 melanoma,> 100 µM
same,TGI,UACC-62 melanoma,> 100 µM
same,GI50,SN12C renal,> 100 µM
same,TGI,SN12C renal,> 100 µM
same,GI50,SK-MEL-2 melanoma,> 100 µM
same,TGI,SK-MEL-2 melanoma,> 100 µM
same,GI50,MDA-MB-231 breast,> 100 µM
same,TGI,MDA-MB-231 breast,> 100 µM
same,GI50,SF-295 CNS,> 100 µM
same,TGI,SF-295 CNS,> 100 µM
same,GI50,U251 CNS,> 100 µM
same,TGI,U251 CNS,> 100 µM
same,GI50,SK-OV-3 ovarian,> 100 µM
same,TGI,SK-OV-3 ovarian,> 100 µM
same,GI50,786-0 renal,> 100 µM
same,TGI,786-0 renal,> 100 µM
same,GI50,MOLT-4 leukemia,> 100 µM
same,TGI,MOLT-4 leukemia,> 100 µM
same,GI50,NCI-H522 lung,> 100 µM
same,TGI,NCI-H522 lung,> 100 µM
same,GI50,NCI-H23 lung,> 100 µM
same,TGI,NCI-H23 lung,> 100 µM
same,GI50,HOP-92 NSCLC,> 100 µM
same,TGI,HOP-92 NSCLC,> 100 µM
same,GI50,NCI-H226 lung,> 100 µM
same,TGI,NCI-H226 lung,> 100 µM
same,GI50,OVCAR-5 ovarian,> 100 µM
same,TGI,OVCAR-5 ovarian,> 100 µM
same,GI50,M14 melanoma,> 100 µM
same,TGI,M14 melanoma,> 100 µM
same,GI50,IGROV1 ovarian,> 100 µM
same,TGI,IGROV1 ovarian,> 100 µM
same,GI50,OVCAR-4 ovarian,> 100 µM
same,TGI,OVCAR-4 ovarian,> 100 µM
same,GI50,PC-3 prostate,> 100 µM
same,TGI,PC-3 prostate,> 100 µM
same,GI50,KM12 colon,> 100 µM
same,TGI,KM12 colon,> 100 µM
same,GI50,SF-539 CNS,> 100 µM
same,TGI,SF-539 CNS,> 100 µM
same,GI50,SK-MEL-5 melanoma,> 100 µM
same,TGI,SK-MEL-5 melanoma,> 100 µM
same,GI50,HCT-15 colon,> 100 µM
same,TGI,HCT-15 colon,> 100 µM
same,GI50,CAKI-1 renal,> 100 µM
same,TGI,CAKI-1 renal,> 100 µM
same,GI50,SNB-75 CNS,> 100 µM
same,TGI,SNB-75 CNS,> 100 µM
same,GI50,DU-145 prostate,> 100 µM
same,TGI,DU-145 prostate,> 100 µM
same,GI50,RXF 393 renal,> 100 µM
same,TGI,RXF 393 renal,> 100 µM
same,GI50,SK-MEL-28 melanoma,> 100 µM
same,TGI,SK-MEL-28 melanoma,> 100 µM
same,GI50,EKVX NSCLC,> 100 µM
same,TGI,EKVX NSCLC,> 100 µM
same,GI50,A549 NSCLC,> 100 µM
same,TGI,A549 NSCLC,> 100 µM
same,GI50,UO-31 renal,> 100 µM
same,TGI,UO-31 renal,> 100 µM
same,GI50,MALME-3M melanoma,> 100 µM
same,TGI,MALME-3M melanoma,> 100 µM
same,GI50,K-562 leukemia,> 100 µM
same,TGI,K-562 leukemia,> 100 µM
same,GI50,HOP-62 NSCLC,> 100 µM
same,TGI,HOP-62 NSCLC,> 100 µM
same,GI50,OVCAR-8 ovarian,> 100 µM
same,TGI,OVCAR-8 ovarian,> 100 µM
same,GI50,SF-268 CNS,> 100 µM
same,TGI,SF-268 CNS,> 100 µM
same,GI50,HCC-2998 colon,> 100 µM
same,TGI,HCC-2998 colon,> 100 µM
same,GI50,COLO 205 colon,> 100 µM
same,TGI,COLO 205 colon,> 100 µM
same,GI50,TK-10 renal,> 100 µM
same,TGI,TK-10 renal,> 100 µM
same,GI50,NCI-H460 lung,> 100 µM
same,TGI,NCI-H460 lung,> 100 µM
same,GI50,HS 578T breast,> 100 µM
same,TGI,HS 578T breast,> 100 µM
same,GI50,MDA-MB-435,> 100 µM
same,TGI,MDA-MB-435,> 100 µM
same,GI50,RPMI-8226 leukemia,> 100 µM
same,TGI,RPMI-8226 leukemia,> 100 µM
same,GI50,OVCAR-3 ovarian,> 100 µM
same,TGI,OVCAR-3 ovarian,> 100 µM
same,GI50,T-47D breast,> 100 µM
same,TGI,T-47D breast,> 100 µM
same,GI50,BT-549 breast,> 100 µM
same,TGI,BT-549 breast,> 100 µM
same,GI50,MCF7 breast,> 100 µM
same,TGI,MCF7 breast,> 100 µM
same,GI50,ACHN renal,> 100 µM
same,TGI,ACHN renal,> 100 µM
